Source: a melting point compilation (Tetko et al.; mined from patent text by program, amines drawn as free bases though some values may be those of a salt)

Compared with `NC(=O)N1CCC(Oc2c(F)c(F)c(F)c(F)c2F)CC1`, `O=C(O)c1cc(NCc2c(F)c(F)c(C(F)(F)F)c(F)c2F)ccc1Br` is lower in melting point: 170 to 172 °C for the first, 70 °C for the second.

First: O=S(=O)(Nc1ccc(-c2n[nH]c3c2Cc2ccccc2-3)cc1)c1ccccc1
Second: CN=C(NS(=O)(=O)c1ccc(Cl)cc1)C1=NN(c2ccc(Cl)cc2Cl)C(c2ccccc2)C1 (centres undefined)
The melting point of the first is higher: 286 to 288 °C for the first, 128 to 130 °C for the second.

First: O=C(O)CCCNC(=O)c1ccccc1NC(=O)c1ccccc1Cl
Second: Cc1nc(NC(=O)c2cccnc2)sc1C(=O)NCc1ccccc1
The melting point of the first is lower: 110 to 112 °C for the first, 224 to 226 °C for the second.

Compared with `COc1ccc(C(=O)c2ccc(Oc3ccc(Cl)cc3)cn2)cc1OC`, `COc1c(F)cc2c(O)c(C(=O)NCc3ccc(Cl)cc3)cnc2c1OC` is higher in melting point: 145 to 147 °C for the first, 228 to 229 °C for the second.

First: COc1cc(C(=O)N[C@@H](CCC(=O)O)C(=O)O)ccc1NCCCc1c(N)nc(N)[nH]c1=O
Second: CCOC(=O)CC(C(=O)OCC)N1CCN(CC2CN(c3ccc(C(=N)NC(=O)c4ccccc4)cc3)C(=O)O2)CC1 (centres undefined)
The melting point of the first is higher: 165 to 184 °C for the first, 136 °C for the second.

Compared with `CSc1sc(C(C)=O)cc1[N+](=O)[O-]`, `CC(C)CNC(=O)c1cc([N+](=O)[O-])cc([N+](=O)[O-])c1` is lower in melting point: 191 to 193 °C for the first, 149 to 155 °C for the second.

First: COc1ccc(NS(=O)(=O)C(F)(F)F)cc1CC1C(=O)c2cc(OCc3nc4cc(F)c(F)cc4s3)ccc2OC1(C)C (centres undefined)
Second: COc1cc(COCCc2cccc(NS(=O)(=O)C(F)(F)F)c2)ccc1-c1ccc(Cl)cc1
The melting point of the first is higher: 198 to 200 °C for the first, 88 to 90 °C for the second.

First: Clc1ccccc1C=Nc1c2c(nc3ccccc13)CCCC2
Second: O=Cc1ccc(-c2nn(Cc3ccccc3)c3ccccc23)o1
The melting point of the first is higher: 165 to 166 °C for the first, 108 °C for the second.

Compared with `CN1CC=C(SC(c2cccc(Br)c2)c2nc3ccccc3[nH]2)CC1` (centres undefined), `Cc1nc(-c2ccccc2)nc(-c2cccc([N+](=O)[O-])c2)c1CN1CCN(C)CC1` is lower in melting point: 189 °C for the first, 138 to 140 °C for the second.

Compared with `CCOP(=O)(CCCCC1(C(=O)NCC(F)(F)F)c2ccccc2-c2ccccc21)OCC`, `COc1ccc(Nc2ccccc2)c(NS(C)(=O)=O)c1` is higher in melting point: 87 to 89 °C for the first, 109 to 111 °C for the second.

First: COc1ccc(C=Cc2oc3ccc(C#N)cc3c2C(C)=O)cc1
Second: CCCc1ccc(Oc2ccc3c(c2)C=C(C(=O)O)CCS3(=O)=O)cc1
The melting point of the first is higher: 190 to 191 °C for the first, 147 to 149 °C for the second.

First: CCCc1cc2c(c(C)c1O)CCO2
Second: COc1cc2oc(=O)c3c(c2cc1OC)CCN(CCN1CC2CCC1CC2)C3
The melting point of the first is lower: 72 to 73 °C for the first, 133 to 135 °C for the second.

First: NNc1ccc(OCc2ccccc2)cc1
Second: O=C(OCc1ccccc1)N1CCC(O)(CNc2ccc(Cl)c(Cl)c2)CC1
The melting point of the first is lower: 101 to 103 °C for the first, 128 to 130 °C for the second.

First: CCCCCCCCCCCC(=O)OCC(COCc1ccccc1)OC(=O)CCCCCCCCCCC (centres undefined)
Second: CCCCCCCCC(=O)Oc1cc2c(s1)CCN(C(C(=O)C1CC1)c1ccccc1F)C2 (centres undefined)
The melting point of the first is lower: 30 to 31 °C for the first, 45 to 48 °C for the second.

Compared with `Nc1nc(SCC2CC2)c2ncn(C3C=CC(CO)C3)c2n1` (centres undefined), `COc1cc2c(-c3ccnc(Cl)c3)c(CO)c(CO)cc2cc1OC1CCCC1` is higher in melting point: 125 to 127 °C for the first, 200 to 201 °C for the second.

First: CN(C)C(=O)COC[C@@H]1CC(c2ccc(-c3ccc(N4C[C@H](Cn5ccnn5)OC4=O)cc3F)cn2)=NO1
Second: Cn1c(=O)c(-c2ccc(Cl)cc2Cl)cc2c3cc(-c4ncco4)ccc3n(C)c21
The melting point of the first is lower: 166 to 168 °C for the first, 232 to 233 °C for the second.

First: CN1C(=O)N(CC(CS(=O)(=O)c2ccc(Oc3ccc(Cl)cc3)cc2)N(O)C=O)C(=O)C1(C)C (single isomer, unassigned; (-))
Second: CS(=O)(=O)c1ccc(-c2cnn(-c3cccc(Cl)c3)c(=O)c2C2CCCC2)cc1
The melting point of the first is lower: 111 °C for the first, 155 to 157 °C for the second.

First: Nc1c(Cl)cc(C(O)CNCCCCCC(=O)OCCc2ccsc2)cc1Cl (centres undefined)
Second: O=C(O)c1cc(Cl)cc([N+](=O)[O-])c1NCc1ccccc1Cl
The melting point of the first is lower: 71 to 73 °C for the first, 160 to 161 °C for the second.

Compared with `CC1=C(N)C(=O)C2CC1C2(C)C` (centres undefined), `C=CCN(C(=O)c1cnc(N2CC(C)(C)NC2=O)nc1N)c1cccc(C(F)(F)F)c1` is higher in melting point: 45 to 46 °C for the first, 187 to 188 °C for the second.

First: Nc1ccccc1C(=O)NN1CCOCC1
Second: CC/C=C(\c1ccccc1N1CCCCC1)C(C(N)=O)c1ccc(C(=O)O)cc1 (centres undefined)
The melting point of the first is lower: 172 °C for the first, 174 to 175 °C for the second.

Compared with `CC(C)n1nc(-c2c(-c3ccccc3)nn3ccc(OC4CCOCC4)cc23)ccc1=O`, `CC(C)(C)C(=O)OCN1C(=O)CC2(C1=O)C(=O)N(Cc1ccc(Cl)c(Cl)c1)c1ccccc12` (centres undefined) is lower in melting point: 210 to 211 °C for the first, 134 to 135 °C for the second.

First: O=CNn1cnc2cc(C(F)(F)F)ccc21
Second: Cc1cc(-c2cc(C(F)(F)F)n3ncc(C(=O)O)c3n2)ccc1Cl
The melting point of the first is lower: 209 to 210 °C for the first, 243 °C for the second.

First: CC(C)(C)OC(=O)NC1(CCOS(C)(=O)=O)CC1
Second: CCn1ncnc1COc1nc2c(cnn2-c2ccccc2)cc1C(C)(C)C
The melting point of the first is lower: 88 to 89 °C for the first, 150 to 152 °C for the second.

Compared with `Cc1ccc(NC(=O)Nc2ccc(-c3c(Cc4ccccc4)sc4ncnc(N)c34)cc2)cc1`, `CCOc1cc2nc(NC)nc(-c3cccc(-c4cccnc4SC)c3)c2cc1OCC` is lower in melting point: 169 to 173 °C for the first, 105 to 107 °C for the second.

`CN1CCN(C(=O)C(CC(=O)N2Cc3cscc3C2)Cc2ccccc2)CC1` (centres undefined) showed a melting point of 156 to 158 °C.
